Assay results reported in paper PMC3664696 (The Journal of General Physiology, 2013).

Target: T1, ASCT2 (alanine serine cysteine transporter 2) (Rattus norvegicus, UniProt D3ZJ25)
T1 sequence (D3ZJ25 1-555): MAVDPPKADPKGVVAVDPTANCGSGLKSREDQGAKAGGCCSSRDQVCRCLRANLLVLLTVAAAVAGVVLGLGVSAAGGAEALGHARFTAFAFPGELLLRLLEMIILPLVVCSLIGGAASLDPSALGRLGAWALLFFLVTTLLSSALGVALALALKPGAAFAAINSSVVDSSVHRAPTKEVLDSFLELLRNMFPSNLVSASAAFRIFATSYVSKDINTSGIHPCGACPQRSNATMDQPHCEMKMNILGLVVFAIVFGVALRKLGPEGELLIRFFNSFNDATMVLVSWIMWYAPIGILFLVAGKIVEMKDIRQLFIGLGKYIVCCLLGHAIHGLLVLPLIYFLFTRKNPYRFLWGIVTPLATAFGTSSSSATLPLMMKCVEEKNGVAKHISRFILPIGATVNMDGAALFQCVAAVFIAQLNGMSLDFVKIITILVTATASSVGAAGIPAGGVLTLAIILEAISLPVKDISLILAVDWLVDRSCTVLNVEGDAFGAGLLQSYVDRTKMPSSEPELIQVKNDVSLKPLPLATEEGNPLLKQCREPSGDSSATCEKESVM
Assay: whole-cell voltage clamp: alanine-induced anion currents
Type: cell-based

In the case of `C[C@H](N)C(=O)O` [alanine], the Km is reported as 160 ± 50 µM.
